One experiment has as its target T1, recombinant rat PAI-1 (Rattus norvegicus, UniProt P20961).
T1 sequence (P20961 24-402): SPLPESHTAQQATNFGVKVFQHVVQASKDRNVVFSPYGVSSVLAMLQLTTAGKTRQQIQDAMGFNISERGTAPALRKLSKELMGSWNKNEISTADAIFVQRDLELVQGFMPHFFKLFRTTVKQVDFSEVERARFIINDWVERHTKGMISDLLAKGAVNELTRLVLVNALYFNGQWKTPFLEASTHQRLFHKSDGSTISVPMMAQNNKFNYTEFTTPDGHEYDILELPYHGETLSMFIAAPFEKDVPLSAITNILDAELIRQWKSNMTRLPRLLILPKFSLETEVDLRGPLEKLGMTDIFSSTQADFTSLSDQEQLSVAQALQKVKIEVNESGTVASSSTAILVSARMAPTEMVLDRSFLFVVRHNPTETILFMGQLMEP
Nature of the experiment: biochemical. Here is the method: (§1) • 0.1 M HEPES • 0.1 M NaCl • […] • 0.1% Polyethylene glycol 8,000 (Hampton Research Corporation) • 2 mM Dimethyldecylphoshine oxide [Apo-10] (Fluka Corporation) [Results]

Experiment [1] has as its system Crlj:CD(SD) rat AV shunt model. In words: Test Example 5: anti-thrombotic activity (rat AV shunt model). Format: in vivo. Conditions: oral, 10 mg/kg/day for 4 days, mean ± S.E., vehicle 72.7 ± 2.7, *p < 0.05. On the procedure:
The administration on the 4th day was carried out about 1 hour before the following perfusion start. Put a 6.5 cm silk thread (Matsuda Ika Kogyou; […] On the connected part where the silk thread is through, parafilm was wrapped around to avoid blood leakage. […] Saline was filled in the above catheter, and both ends of the catheter were inserted in right carotid artery and […], respectively, and blood was circulated. 30 minutes later, the catheter was pinched with forceps to stop blood flow, and tube parts where the silk thread is through were cut and removed. The silk thread was carefully removed from the tubes, remaining wet weight was weighed after removing the liquid phase by filter paper, and further subtraction of the weight of the silk thread, gives the thrombus weight. For the thrombus weight in each group, an average value±standard error (S.E.) was calculated. […] For the test, the SAS System Release 8.2 (TS2M0) for Windows (Registered Trademark) (SAS Institute Inc.) and its coorperative system […] Ver. 7.10 (Arm Systex Co. Ltd.) were employed.

For experiment [2], the target named is T2, recombinant human PAI-1 (Homo sapiens, UniProt P05121). Nature of the experiment: biochemical. On the procedure: <Compotion of pH7.4 HEPES Buffer>
as §1

Experiment [3] addresses T2, recombinant human PAI-1. Nature of the experiment: Test Example 1: human PAI-1 inhibitory activity (tPA fluorogenic substrate, pH7.5 Tris buffer). Format: biochemical. The arrangement: purchased Molecular Innovations, Inc. The note with it: for Inhibition Rate of Human PAI-1 Activity (%): Tris buffer pH7.5.
Method: In a 96-well multiplate (black), 1.5 μl of DMSO solution of the present application compound prepared to achieve 80-fold the test concentration (=the final concentration when fluorogenic substrate is added) was diluted with 52.5 μl of pH7.5 Tris buffer. […] Furthermore, 30 μl of 800 IU/ml two-chain tPA (Activity Standard; American diagnostics, inc.) prepared by Tris buffer was added, and the mixed solution was incubated for 15 minutes at room temperature. To this, 30 μl of 400 μM fluorogenic substrate (Pyr-Gly-Arg-MCA; Peptide Institute, Inc.) for tPA prepared by Tris buffer was added and reacted for 30 minutes at room temperature.
<Composition of pH7.5 Tris Buffer)
[4] abbreviates: read-out: Inhibition Rate of Rat PAI-1 Activity (%).
Setting [5] is: pH 7.5, read-out: Inhibition Rate of Human PAI-1 Activity (%).

T2 sequence (P05121 24-402): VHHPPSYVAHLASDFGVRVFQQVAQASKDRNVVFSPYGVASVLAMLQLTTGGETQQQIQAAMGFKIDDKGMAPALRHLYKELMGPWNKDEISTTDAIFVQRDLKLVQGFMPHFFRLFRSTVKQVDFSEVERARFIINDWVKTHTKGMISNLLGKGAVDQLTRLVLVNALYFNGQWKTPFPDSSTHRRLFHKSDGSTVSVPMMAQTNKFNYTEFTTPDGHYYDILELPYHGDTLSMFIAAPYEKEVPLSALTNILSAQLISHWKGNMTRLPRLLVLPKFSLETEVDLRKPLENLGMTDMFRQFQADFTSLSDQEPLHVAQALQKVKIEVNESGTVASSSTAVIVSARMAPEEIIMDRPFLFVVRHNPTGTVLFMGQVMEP

In general, IC50 refers to the concentration that gives 50% inhibition. On to `CC(C)(C)c1ccc(COc2ccc(-c3ccc(OC(F)(F)F)cc3)cc2CCC(=O)O)cc1` [Compound 5, 3-{4-[4-(tert-butyl)benzyloxy]-4′-(trifluoromethoxy)biphenyl-3-yl}propanoic acid], for which the IC50 on recombinant rat PAI-1 was 2.8 µM; at recombinant human PAI-1 [2], 1.27 µM. For the same compound, in experiment [1], the “Thrombus Weight (mg)” value is 57.5 ± 5.0* mg.
`CC(C)(C)c1ccc(COc2ccc(-c3ccc(OC(F)(F)F)cc3)cc2CC(=O)O)cc1` [Compound 9, {4-[4-(tert-butyl)benzyloxy]-4′-(trifluoromethoxy)biphenyl-3-yl}acetic acid]: the IC50 was determined as 2.07 µM on recombinant rat PAI-1 and 1.3 µM on recombinant human PAI-1 [2].
Usually inhibition stands for the percentage by which the read-out fell short of the control. For `CC(C)(C)c1ccc(Oc2ccc(-c3ccc(OC(F)(F)F)cc3)cc2CCC(=O)O)cc1` [Compound 13, 3-{4-[4-(tert-butyl)phenoxy]-4′-(trifluoromethoxy)biphenyl-3-yl}propanoic acid], the IC50 turned out to be 2.17 µM at recombinant rat PAI-1 and 1.17 µM on recombinant human PAI-1 [2]. In addition, on recombinant rat PAI-1 (setting [4]), the inhibition at 10 µM was more than 99%.
Regarding `CC(C)(C)c1ccc(-c2ccc(OCc3ccccc3)c(CCC(=O)O)c2)cc1` [Compound 53, 3-[4-benzyloxy-4′-(tert-butyl)biphenyl-3-yl]propanoic acid], the “Inhibition Rate of Human PAI-1 Activity (%)” value (“Inhibition Rate … (%)” for short) turned out to be 20% at recombinant human PAI-1 [3] (compound 5 μM), 50% at recombinant human PAI-1 [3] (compound 10 μM) and 93% at recombinant human PAI-1 [3] (compound 25 μM).
Consider `CC(C)(C)c1ccc(-c2ccc(OCc3ccc(OC(F)(F)F)cc3)c(/C=C/C(=O)O)c2)cc1` [Compound 56, (E)-3-{4′-(tert-butyl)-4-[4-(trifluoromethoxy)benzyloxy]biphenyl-3-yl}propenoic acid], for which the “Inhibition Rate … (%)” value on recombinant human PAI-1 [3] (compound 5 μM) is on record as 32%; on recombinant human PAI-1 [3] (compound 10 μM), 69%; at recombinant human PAI-1 [3] (compound 25 μM), 94%.
For `CC(C)(C)c1ccc(-c2ccc(OCc3ccc(OC(F)(F)F)cc3)c(CCC(=O)O)c2)cc1` [Compound 57, 3-{4′-(tert-butyl)-4-[4-(trifluoromethoxy)benzyloxy]biphenyl-3-yl}propanoic acid], the results for the “Inhibition Rate … (%)” value at recombinant human PAI-1 [3] (compound 5 μM), on recombinant human PAI-1 [3] (compound 10 μM) and at recombinant human PAI-1 [3] (compound 25 μM) were 28%, 64% and 94%, respectively.
Regarding `O=C(O)CCc1cc(-c2ccccc2)ccc1OCc1ccc(OC(F)(F)F)cc1` [Compound 58, 3-{4-[4-(trifluoromethoxy)benzyloxy]biphenyl-3-yl}propanoic acid], the “Inhibition Rate … (%)” value amounted to 19% on recombinant human PAI-1 [3] (compound 5 μM), 32% at recombinant human PAI-1 [3] (compound 10 μM) and 74% at recombinant human PAI-1 [3] (compound 25 μM).
As for `CC(C)(C)c1ccc(COc2ccc(-c3ccc(OC(F)(F)F)cc3)cc2N(Cc2ccccc2)C(=O)C(=O)O)cc1` [Compound 59, N-benzyl-N-{4-[4-(tert-butyl)benzyloxy]-4′-(trifluoromethoxy)biphenyl-3-yl}oxamic acid], the inhibition at 3 µM on recombinant rat PAI-1 (setting [4]) was more than 99%; on recombinant human PAI-1 [2] (pH 7.4, read-out: Inhibition Rate of Human PAI-1 Activity (%)), more than 99%. Moreover, on recombinant rat PAI-1 (setting [4]), the inhibition at 10 µM was more than 99%. On recombinant human PAI-1 [3] (setting [5]), the inhibition at 25 µM amounted to 81%.
Consider `COc1ccccc1-c1ccc(OCc2ccc(C(C)(C)C)cc2)c(/C=C/C(=O)O)c1` [Compound 61, (E)-3-{4-[4-(tert-butyl)benzyloxy]-2′-methoxybiphenyl-3-yl}propenoic acid], for which the figures for the “Inhibition Rate … (%)” value on recombinant human PAI-1 [3] (compound 5 μM), on recombinant human PAI-1 [3] (compound 10 μM) and at recombinant human PAI-1 [3] (compound 25 μM) were 21%, 46% and 95%, respectively.
In the same order, the values of `COc1ccccc1-c1ccc(OCc2ccc(C(C)(C)C)cc2)c(CCC(=O)O)c1` [Compound 62, 3-{4-[4-(tert-butyl)benzyloxy]-2′-methoxybiphenyl-3-yl}propanoic acid] are 22%, 47% and 91%.
`COc1ccc(COc2ccc(-c3ccc(OC(F)(F)F)cc3)cc2CCC(=O)O)cc1` [Compound 66, 3-[4-(4-methoxybenzyloxy)-4′-(trifluoromethoxy)biphenyl-3-yl]propanoic acid]: the results for the “Inhibition Rate … (%)” value on recombinant human PAI-1 [3] (compound 5 μM), on recombinant human PAI-1 [3] (compound 10 μM) and on recombinant human PAI-1 [3] (compound 25 μM) were 15%, 35% and 25%, respectively.
Regarding `CC(C)(C)c1ccc(COc2ccc(-c3ccc(OC(F)(F)F)cc3)cc2CCc2nnn[nH]2)cc1` [Compound 69, 5-{2-{4-[4-(tert-butyl)benzyloxy]-4′-(trifluoromethoxy)biphenyl-3-yl}ethyl}-1H-tetrazole], on recombinant human PAI-1 [3] (setting [5]), the inhibition at 10 µM is 34% and the inhibition at 25 µM is more than 99%.
With `CC(C)(C)c1ccc(COc2ccc(-c3cccc(OC(F)(F)F)c3)cc2/C=C/C(=O)O)cc1` [Compound 70, (E)-3-{4-[4-(tert-butyl)benzyloxy]-3′-(trifluoromethoxy)biphenyl-3-yl}propenoic acid], the “Inhibition Rate … (%)” value on recombinant human PAI-1 [3] (compound 5 μM) turned out to be 38%; on recombinant human PAI-1 [3] (compound 10 μM), 72%; at recombinant human PAI-1 [3] (compound 25 μM), 93%.
For the compound `CC(C)(C)c1ccc(COc2ccc(-c3cccc(OC(F)(F)F)c3)cc2CCC(=O)O)cc1` [Compound 71, 3-{4-[4-(tert-butyl)benzyloxy]-3′-(trifluoromethoxy)biphenyl-3-yl}propanoic acid], the “Inhibition Rate … (%)” value at recombinant human PAI-1 [3] (compound 5 μM) was determined as 49%; at recombinant human PAI-1 [3] (compound 10 μM), 74%; at recombinant human PAI-1 [3] (compound 25 μM), 95%.
In the same order, the values of `CC(C)(C)c1ccc(COc2ccc(-c3ccccc3OC(F)(F)F)cc2/C=C/C(=O)O)cc1` [Compound 72, (E)-3-{4-[4-(tert-butyl)benzyloxy]-2′-(trifluoromethoxy)biphenyl-3-yl}propenoic acid] are 42%, 72% and 93%.
In the same order, the values of `CC(C)(C)c1ccc(COc2ccc(-c3ccccc3OC(F)(F)F)cc2CCC(=O)O)cc1` [Compound 73, 3-{4-[4-(tert-butyl)benzyloxy]-2′-(trifluoromethoxy)biphenyl-3-yl}propanoic acid] are 52%, 80% and more than 99%.
As to `CC(C)(C)c1ccc(-c2ccc(OCc3ccccc3OC(F)(F)F)c(CCC(=O)O)c2)cc1` [Compound 74, 3-{4′-(tert-butyl)-4-[2-(trifluoromethoxy)benzyloxy]biphenyl-3-yl}propanoic acid], the “Inhibition Rate … (%)” value on recombinant human PAI-1 [3] (compound 5 μM) was 37%; on recombinant human PAI-1 [3] (compound 10 μM), 70%; on recombinant human PAI-1 [3] (compound 25 μM), 94%.
As for `CC(C)(C)c1ccc(-c2ccc(OCc3cccc(OC(F)(F)F)c3)c(CCC(=O)O)c2)cc1` [Compound 75, 3-{4′-(tert-butyl)-4-[3-(trifluoromethoxy)benzyloxy]biphenyl-3-yl}propanoic acid], the “Inhibition Rate … (%)” value at recombinant human PAI-1 [3] (compound 5 μM) is given as 40%; at recombinant human PAI-1 [3] (compound 10 μM) it was 74%; on recombinant human PAI-1 [3] (compound 25 μM), 95%.
In the case of `CC(C)(C)c1ccc(-c2ccc(OCc3ccc(C(F)(F)F)cc3)c(CCC(=O)O)c2)cc1` [Compound 77, 3-{4′-(tert-butyl)-4-[4-(trifluoromethyl)benzyloxy]biphenyl-3-yl}propanoic acid], the “Inhibition Rate … (%)” value at recombinant human PAI-1 [3] (compound 5 μM) stood at 47%; at recombinant human PAI-1 [3] (compound 10 μM) it was 71%; at recombinant human PAI-1 [3] (compound 25 μM) it was 95%.
In the same order, the values of `CCCCc1ccc(COc2ccc(-c3ccc(C(C)(C)C)cc3)cc2CCC(=O)O)cc1` [Compound 78, 3-[4′-(tert-butyl)-4-(4-butylbenzyloxy)biphenyl-3-yl]propanoic acid] are 51%, 80% and 93%.
